Patent US10555930B2, “Complex of a glucopyranosyl derivative and preparation method and use thereof” (SUNSHINE LAKE PHARMA CO., LTD., priority 2015, dated 2020)

How the values were obtained:
[1] = Measurement of solubility (Chinese Pharmacopoeia 2010 method); format: physicochemical
Excerpt: Judgement standard of solubility are shown as table A.

[2] = Measurement of hygroscopicity (Chinese Pharmacopoeia 2010, part II, appendix XIXJ); format: physicochemical; conditions: 25° C.±1° C., constant humidity (ammonium chloride or ammonium sulfate saturated solution), 24 h
Protocol: Test method: According to the method regulated by Chinese pharmacopoeia 2010, part II, appendix XIXJ, a dry glass weighing bottle with a stopper (outside diameter is 50 mm, high is 15 mm) was placed in a thermostatic drier (an ammonium chloride or ammonium sulfate saturated solution was placed in the bottom) at 25° C.±1° C. before one day of experiment, the empty glass weighing bottle with a stopper was weighed accurately by using METTLERTOLEDO XP205DR analytical balance, and recorded as m1. An appropriate amount of the Complex (IA) sample (prepared from example 2) was tiled on the above weighing bottle at a thickness of 1 mm, which was weighed accurately and recorded as m2. Opening the bottle, the bottle was placed under the above constant temperature and humidity condition for 24 h […]. Closing the bottle with the stopper, the bottle was weighed accurately, and recorded as m3, the weight gain percentage (%) was calculated.
The judgement of the results hygroscopicity was shown as table C.

[3] = molecular target: T1, human SGLT-2 (Homo sapiens, UniProt P31639); assay: Inhibitory activity against SGLT-2, [14C]-AMG uptake in CHO cells; format: cell-based
T1 construct: expressed in transfected cells; host or cells: CHO cells (Flp-in CHO)
T1 sequence (P31639 1-672): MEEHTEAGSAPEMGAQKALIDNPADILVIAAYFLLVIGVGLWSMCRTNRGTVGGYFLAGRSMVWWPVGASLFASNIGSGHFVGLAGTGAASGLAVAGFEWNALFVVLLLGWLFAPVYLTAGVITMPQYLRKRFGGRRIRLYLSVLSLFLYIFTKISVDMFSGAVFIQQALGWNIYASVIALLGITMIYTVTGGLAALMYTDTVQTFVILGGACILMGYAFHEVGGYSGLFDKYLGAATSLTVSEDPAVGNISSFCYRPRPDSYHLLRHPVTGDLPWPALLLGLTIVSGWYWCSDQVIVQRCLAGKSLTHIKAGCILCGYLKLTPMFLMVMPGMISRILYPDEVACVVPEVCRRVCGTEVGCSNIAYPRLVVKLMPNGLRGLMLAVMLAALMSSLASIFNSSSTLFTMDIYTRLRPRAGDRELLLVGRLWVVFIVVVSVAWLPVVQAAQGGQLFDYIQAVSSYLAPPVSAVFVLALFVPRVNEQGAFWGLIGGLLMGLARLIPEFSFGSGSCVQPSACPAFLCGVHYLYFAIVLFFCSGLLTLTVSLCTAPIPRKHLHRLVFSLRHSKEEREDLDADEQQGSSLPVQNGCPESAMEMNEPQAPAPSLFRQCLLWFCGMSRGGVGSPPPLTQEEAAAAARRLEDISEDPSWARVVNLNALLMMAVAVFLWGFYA
Protocol: The following method was used for detecting inhibitory activity of the compounds of the invention against SGLT-1 and SGLT-2.
3×10^4 of FIP-in CHO cells transfected Mock and CHO cells expressing human SGLT-1/SGLT-2 gene were seeded into a 96-well cell culture plate; the cells were incubated for 12 hours, and then to each well was added 150 μL of Na-free buffer to wash the cells once; and then to each well were added 50 μL of Na buffer containing the compound at different concentrations and 0.5 μM [^14C]-AMG, and the plate was incubated in a incubator at 37° C. for 1 hour, the reaction was terminated by adding 150 μL of pre-cooled Na-free buffer; the cells were further washed with Na-free buffer 3 times and the residual liquid was removed; to each well was added 20 μL of pre-cooled NaOH ([…]), the plate was vibrated at 900 rpm for 5 min; and then to each well was added 80 μL of scintillation solution, the plate was vibrated at 600 rpm for 5 min; the plate was analyzed on liquid scintillation counter.

[4] = Measurement of stability (high-temperature, high-humidity and photostability tests; HPLC impurity content); format: physicochemical; conditions: for total impurity / purity: 210 nm
Protocol: An appropriate amount of the Complex (IA) sample (prepared from example 2) was weighed and tiled on a clean culture dish at a thickness of ≤5 mm, and analyzed under the following conditions:
The test sample was placed under a high temperature condition (60±2° C.) for 10 d, the relative indexes were measured at the fifth and tenth days. […] If no significant change, the test at 40° C. was not necessary.
The test sample was placed under a 25° C. and RH 90%±5% condition for 10 d, and the sample were measured at the fifth and tenth days. Test items should include a moisture-absorption weight gain. If weighting percentage of moisture absorption was more than 5%, the test should be carried out under a 25° C. and RH 75%±5% condition using the same method; If weighting percentage of moisture absorption was less than 5%, and other inspection items met the requirements, the test was not necessary. The constant humidity condition can be realized by adopting constant temperature humidity chamber or placing a saturated saline solution under a closed container. […]
The test sample was placed in light box or other suitable light vessel under a 4500 Lx±500 Lx of illuminance condition for 10 d, and the sample were measured at the fifth and tenth days.
The impurity content of the sample was calculated by the normalization method of peak area using an HPLC chromatographic instrument under the above condition, the analytic conditions were shown below:
The detection was performed on Agilent 1200DAD high pressure liquid chromatography spectrometer (Zorbax Eclipse Plus C18 150×4.6 mm chromatographic column).
The test condition of HPLC: the run time was 30 minutes (min); the column temperature was 35° C.; the detection was carried out at the wavelength of 210 nm and 225 nm;
Mobile phase: phase C: acetonitrile phase D: ultrapure water flow rate: 1.0 mL/min.
Gradient elution, the ratio of mobile phase was shown as table B.

[5] = solvent DMA, sampling weight 100.02, solvent volume 0.095 mL
[6] = solvent DMSO, sampling weight 100.16, solvent volume 0.095 mL
[7] = solvent acetonitrile, sampling weight 100.20, solvent volume 2.90 mL
[8] = solvent ethanol, sampling weight 100.10, solvent volume 2.90 mL
[9] = solvent methanol, sampling weight 100.23, solvent volume 0.095 mL
[10] = high humidity (25° C., RH 90%±5%), 5 d, HPLC
[11] = high humidity (25° C., RH 90%±5%), 10 d, HPLC
[12] = high-temperature (60±2° C.), 5 d, HPLC
[13] = high-temperature (60±2° C.), 10 d, HPLC
[14] = illumination (4500 Lx±500 Lx), 5 d, HPLC
[15] = illumination (4500 Lx±500 Lx), 10 d, HPLC

Compound: CCOc1ccc(Cc2cc([C@]34OC[C@]([C@@H](C)O)(O3)[C@@H](O)[C@H](O)[C@H]4O)ccc2Cl)cc1 [Complex (IA), Complex (IA) of (1R,2S,3S,4R,5S)-5-(4-chloro-3-(4-ethoxybenzyl)phenyl)-1-((1R)-1-hydroxyethyl)-6,8-dioxabicyclo[3.2.1]octane-2,3,4-triol (I-n) and L-pyroglutamic acid]
- solubility (summary in words) ([1]; in acetonitrile, methanol, ethanol, DMSO and DMA): good solubility
- solubility results [1, 5]: Very soluble (1 g (mL) of solute can be dissolved completely in a <1 mL of solvent)
- yes/no dissolved [1, 5]: yes
- solubility results [1, 6]: Very soluble (1 g (mL) of solute can be dissolved completely in a <1 mL of solvent)
- yes/no dissolved [1, 6]: yes
- solubility results [1, 7]: Soluble (1 g (mL) of solute can be dissolved completely in a 10 to <30 mL of solvent)
- yes/no dissolved [1, 7]: yes
- solubility results [1, 8]: Soluble (1 g (mL) of solute can be dissolved completely in a 10 to <30 mL of solvent)
- yes/no dissolved [1, 8]: yes
- solubility results [1, 9]: Very soluble (1 g (mL) of solute can be dissolved completely in a <1 mL of solvent)
- yes/no dissolved [1, 9]: yes
- yes/no dissolved ([1]; solvent water, sampling weight 10.33, solvent volume 102 mL): no
- weight gain percentage [2]: 0.27%
- SGLT-2 inhibitory activity ([3]; CHO cells expressing human SGLT-2, [14C]-AMG): has SGLT-2 and SGLT-1 inhibitory activity
- inhibitory activity to SGLT-2 compared with SGLT-1 ([3]; SGLT-2 versus SGLT-1): the inhibitory activity to SGLT-2 is much more stronger than that to SGLT-1
- total impurity ([4]; 0 d, HPLC peak area normalization): 0.15%
- purity ([4]; 0 d, HPLC): 99.85%
- purity [4, 10]: 99.85%
- total impurity [4, 10]: 0.15%
- purity [4, 11]: 99.81%
- total impurity [4, 11]: 0.19%
- purity [4, 12]: 99.83%
- total impurity [4, 12]: 0.17%
- purity [4, 13]: 99.81%
- total impurity [4, 13]: 0.19%
- stability (summary in words) ([4]; high-temperature, high humidity or illumination for 10 d): good stability
- purity [4, 14]: 99.83%
- total impurity [4, 14]: 0.17%
- purity [4, 15]: 99.78%
- total impurity [4, 15]: 0.22%
